{
  "source": "ChEMBL document CHEMBL4052754",
  "about": "“Targeting progesterone metabolism in breast cancer with l-proline derived new 14-azasteroids” (Bioorg Med Chem, 2017)",
  "key": {"[1]": {"tested_on": "MCF7", "experiment": "Anti-invasive activity against human MCF7 cells assessed as inhibition of TGF-beta induced cell invasion at 0.5 to 1 uM after 24 hrs by crystal violet staining based transwell assay", "type": "functional"}, "[2]": {"tested_on": "MCF7", "experiment": "Induction of apoptosis in human MCF7 cells after 24 hrs by Annexin-V-FITC/propidium iodide staining based flow cytometric analysis", "type": "functional, cell-based"}, "[3]": {"tested_on": "MCF7", "experiment": "Cell cycle arrest in human MCF7 cells assessed as increase in G2/M population at 0.5 to 10 uM after 24 hrs by propidium iodide staining based flow cytometric analysis", "type": "functional"}, "[4]": {"tested_on": "HEK293", "experiment": "Cytotoxicity against HEK293 cells after 24 hrs by MTT assay", "type": "cell-based", "conditions": "Homo sapiens, HEK293, 24 h"}, "[5]": {"tested_on": "MDA-MB-231", "experiment": "Anti-migratory activity against human MDA-MB-231 cells assessed as reduction in cell migration towards wound area at 0.5 to 10 uM after 24 hrs by phase contrast microscopic analysis", "type": "functional, cell-based"}, "[6]": {"tested_on": "MCF7", "experiment": "Cytotoxicity against human MCF7 cells after 24 hrs by MTT assay", "type": "functional, cell-based", "conditions": "MCF7, 24 h"}, "[7]": {"tested_on": "MDA-MB-231", "experiment": "Induction of mitochondrial membrane potential loss in human MDA-MB-231 cells assessed as ratio of green to red fluorescence at 1 uM after 24 hrs by JC1 staining based flow cytometric analysis (reference value: 4.55)", "type": "functional"}, "[8]": {"tested_on": "MDA-MB-231", "experiment": "Induction of mitochondrial membrane potential loss in human MDA-MB-231 cells assessed as ratio of green to red fluorescence at 5 uM after 24 hrs by JC1 staining based flow cytometric analysis (reference value: 4.55)", "type": "functional"}, "[9]": {"tested_on": "MDA-MB-231", "experiment": "Cell cycle arrest in human MDA-MB-231 cells assessed as increase in sub-G1 population after 24 hrs by flow cytometric analysis", "type": "functional, cell-based"}, "[10]": {"tested_on": "MCF7", "experiment": "Decrease in SRD5A1 level in human MCF7 cells at 1 to 10 uM after 24 hrs by ELISA", "type": "functional, cell-based"}, "[11]": {"tested_on": "MDA-MB-231", "experiment": "Cell cycle arrest in human MDA-MB-231 cells assessed as increase in G2/M-phase population after 24 hrs by flow cytometric analysis", "type": "functional, cell-based"}, "[12]": {"tested_on": "MDA-MB-231", "experiment": "Induction of mitochondrial membrane potential loss in human MDA-MB-231 cells after 24 hrs by JC1 staining based flow cytometric analysis", "type": "functional, cell-based"}, "[13]": {"tested_on": "MCF7", "experiment": "Cell cycle arrest in human MCF7 cells assessed as increase in sub-G1 population at 0.5 to 10 uM after 24 hrs by propidium iodide staining based flow cytometric analysis", "type": "functional"}, "[14]": {"tested_on": "MDA-MB-231", "experiment": "Induction of apoptosis in human MDA-MB-231 cells after 24 hrs by Annexin-V-FITC/propidium iodide staining based flow cytometric analysis", "type": "functional, cell-based"}, "[15]": {"tested_on": "MDA-MB-231", "experiment": "Induction of mitochondrial membrane potential loss in human MDA-MB-231 cells assessed as ratio of green to red fluorescence at 0.5 uM after 24 hrs by JC1 staining based flow cytometric analysis (reference value: 4.55)", "type": "functional"}, "[16]": {"tested_on": "MDA-MB-231", "experiment": "Anti-migratory activity against human MDA-MB-231 cells assessed as reduction in cell migration towards wound area at 0.1 uM after 24 hrs by phase contrast microscopic analysis", "type": "functional, cell-based"}, "[17]": {"tested_on": "MCF7", "experiment": "Induction of mitochondrial membrane potential loss in human MCF7 cells assessed as ratio of green to red fluorescence at 1 uM after 24 hrs by JC1 staining based flow cytometric analysis (reference value: 1.41)", "type": "functional"}, "[18]": {"tested_on": "MCF7", "experiment": "Induction of mitochondrial membrane potential loss in human MCF7 cells assessed as ratio of green to red fluorescence at 5 uM after 24 hrs by JC1 staining based flow cytometric analysis (reference value: 1.41)", "type": "functional"}, "[19]": {"tested_on": "MDA-MB-231", "experiment": "Cell cycle arrest in human MDA-MB-231 cells assessed as decrease in S phase population after 24 hrs by flow cytometric analysis", "type": "functional, cell-based"}, "[20]": {"tested_on": "MDA-MB-231", "experiment": "Anti-migratory activity against human MDA-MB-231 cells assessed as reduction in cell migration towards wound area at 50 uM after 24 hrs by phase contrast microscopic analysis relative to control", "type": "functional", "design": "scale not given: the % may be the effect or the level left"}, "[21]": {"tested_on": "MCF7", "experiment": "Induction of mitochondrial membrane potential loss in human MCF7 cells assessed as ratio of green to red fluorescence at 0.5 uM after 24 hrs by JC1 staining based flow cytometric analysis (reference value: 1.41)", "type": "functional"}, "[22]": {"tested_on": "MCF7", "experiment": "Induction of mitochondrial membrane potential loss in human MCF7 cells after 24 hrs by JC1 staining based flow cytometric analysis", "type": "functional, cell-based"}, "[23]": {"tested_on": "MCF7", "experiment": "Decrease in 5alpha-DHP level in human MCF7 cells after 24 hrs by ELISA", "type": "functional, cell-based"}, "[24]": {"tested_on": "MDA-MB-231", "experiment": "Cytotoxicity against human MDA-MB-231 cells after 24 hrs by MTT assay", "type": "functional, cell-based", "conditions": "MDA-MB-231, 24 h"}, "[25]": {"tested_on": "MCF7", "experiment": "Decrease in progesterone level in human MCF7 cells at 1 to 10 uM after 24 hrs by ELISA", "type": "functional, cell-based"}, "[26]": {"tested_on": "MCF7", "experiment": "Decrease in 5alpha-DHP level in human MCF7 cells at 1 to 10 uM after 24 hrs by ELISA", "type": "functional, cell-based"}},
  "note": "Calls of active or inactive are those of the source. No cut-off for these calls is given here.",
  "data": [
    {"smiles": "C[C@]12CC=C3c4ccccc4CC[C@@H]3N1CCC2", "values": [
      {"measurement": "inhibition", "setting": "[1]", "value": "Active"},
      {"measurement": "Activity", "setting": "[2]", "value": "Dose-dependent effect"},
      {"measurement": "Activity", "setting": "[3]", "value": "Active"},
      {"measurement": "IC50", "setting": "[4]", "value": "> 50", "unit": "µM"},
      {"measurement": "Activity", "setting": "[5]", "value": "Active"},
      {"measurement": "IC50", "setting": "[6]", "value": 1, "unit": "µM"},
      {"measurement": "Ratio", "setting": "[7]", "value": 9.35},
      {"measurement": "Ratio", "setting": "[8]", "value": 9.045},
      {"measurement": "Activity", "setting": "[9]", "value": "Dose-dependent effect"},
      {"measurement": "Activity", "setting": "[10]", "value": "Active"},
      {"measurement": "Activity", "setting": "[11]", "value": "Dose-dependent effect"},
      {"measurement": "Activity", "setting": "[12]", "value": "Dose-dependent effect"},
      {"measurement": "Activity", "setting": "[13]", "value": "Active"},
      {"measurement": "Activity", "setting": "[14]", "value": "Dose-dependent effect"},
      {"measurement": "Ratio", "setting": "[15]", "value": 7.8},
      {"measurement": "Activity", "setting": "[16]", "value": "inactive"},
      {"measurement": "Ratio", "setting": "[17]", "value": 4.45},
      {"measurement": "Ratio", "setting": "[18]", "value": 8.29},
      {"measurement": "Activity", "setting": "[19]", "value": "Dose-dependent effect"},
      {"measurement": "Activity", "setting": "[20]", "value": 100, "unit": "%"},
      {"measurement": "Ratio", "setting": "[21]", "value": 2.51},
      {"measurement": "Activity", "setting": "[22]", "value": "Dose-dependent effect"},
      {"measurement": "Activity", "setting": "[23]", "value": "Dose-dependent effect"},
      {"measurement": "IC50", "setting": "[24]", "value": 1.4, "unit": "µM"},
      {"measurement": "Activity", "setting": "[25]", "value": "Active"}
    ]},
    {"smiles": "C[C@]12CC=C3c4ccccc4CC[C@H]3N1CCC2", "values": [
      {"measurement": "IC50", "setting": "[4]", "value": "> 50", "unit": "µM"},
      {"measurement": "IC50", "setting": "[6]", "value": 4.3, "unit": "µM"},
      {"measurement": "IC50", "setting": "[24]", "value": 33.9, "unit": "µM"}
    ]},
    {"smiles": "COc1ccc2c(c1)C1=CC[C@@H]3C[C@@H](OCc4ccccc4)CN3[C@@H]1CC2", "values": [
      {"measurement": "IC50", "setting": "[4]", "value": "> 50", "unit": "µM"},
      {"measurement": "IC50", "setting": "[6]", "value": "> 50", "unit": "µM"},
      {"measurement": "IC50", "setting": "[24]", "value": 42.4, "unit": "µM"}
    ]},
    {"smiles": "C1=C2c3ccccc3CC[C@H]2N2CCC[C@H]2C1", "values": [
      {"measurement": "IC50", "setting": "[4]", "value": "> 50", "unit": "µM"},
      {"measurement": "IC50", "setting": "[6]", "value": 34.4, "unit": "µM"},
      {"measurement": "IC50", "setting": "[24]", "value": "> 50", "unit": "µM"}
    ]},
    {"smiles": "C1=C2c3ccccc3CC[C@@H]2N2CCC[C@H]2C1", "values": [
      {"measurement": "IC50", "setting": "[4]", "value": "> 50", "unit": "µM"},
      {"measurement": "IC50", "setting": "[6]", "value": "> 50", "unit": "µM"},
      {"measurement": "IC50", "setting": "[24]", "value": 47.2, "unit": "µM"}
    ]},
    {"smiles": "C1=C2c3ccccc3CC[C@@H]2N2C[C@H](OCc3ccccc3)C[C@H]2C1", "values": [
      {"measurement": "IC50", "setting": "[4]", "value": "> 50", "unit": "µM"},
      {"measurement": "IC50", "setting": "[6]", "value": 40.6, "unit": "µM"},
      {"measurement": "IC50", "setting": "[24]", "value": 45.3, "unit": "µM"}
    ]},
    {"smiles": "C1=C2c3ccccc3CC[C@H]2N2C[C@H](OCc3ccccc3)C[C@H]2C1", "values": [
      {"measurement": "IC50", "setting": "[4]", "value": "> 50", "unit": "µM"},
      {"measurement": "IC50", "setting": "[6]", "value": 5.4, "unit": "µM"},
      {"measurement": "IC50", "setting": "[24]", "value": 35.6, "unit": "µM"}
    ]},
    {"smiles": "CC(C)(C)NC(=O)[C@H]1CC[C@H]2[C@@H]3CC[C@H]4NC(=O)C=C[C@]4(C)[C@H]3CC[C@]12C", "note": "[FINASTERIDE]", "values": [
      {"measurement": "Activity", "setting": "[26]", "value": "inactive"},
      {"measurement": "IC50", "setting": "[4]", "value": "> 50", "unit": "µM"},
      {"measurement": "IC50", "setting": "[6]", "value": 44.1, "unit": "µM"},
      {"measurement": "Activity", "setting": "[10]", "value": "inactive"},
      {"measurement": "IC50", "setting": "[24]", "value": "> 50", "unit": "µM"},
      {"measurement": "Activity", "setting": "[25]", "value": "Active"}
    ]},
    {"smiles": "COc1ccc2c(c1)C1=CC[C@@H]3C[C@@H](OCc4ccccc4)CN3[C@H]1CC2", "values": [
      {"measurement": "IC50", "setting": "[4]", "value": "> 50", "unit": "µM"},
      {"measurement": "IC50", "setting": "[6]", "value": "> 50", "unit": "µM"},
      {"measurement": "IC50", "setting": "[24]", "value": 9.8, "unit": "µM"}
    ]}
  ]
}
